“And” between values parts separate entries of the source, which are not always exact repeats. Identical values can stand only once.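 Interpolation was linear, between the two tested concentrations surrounding the appropriate level; five concentrations were tested over 48 hours in 96-well plates. The concentration for 50% growth inhibition is given as GI50. The concentration for full growth arrest is given as TGI.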
Tests used:
Test in all cases: NCI anticancer screen, dose series, 48 h
A549 NSCLC = system: A549 NSCLC
ACHN renal = system: ACHN renal
HT29 colon = system: HT29 colon
MCF7 breast = system: MCF7 breast
OVCAR-8 ovarian = system: OVCAR-8 ovarian
PC-3 prostate = system: PC-3 prostate
RXF 393 renal = system: RXF 393 renal
SK-MEL-28 melanoma = system: SK-MEL-28 melanoma
SK-OV-3 ovarian = system: SK-OV-3 ovarian
SR leukemia = system: SR leukemia

For `COC(=O)Nc1nc2ccc(C(=O)c3cccs3)cc2[nH]1`, the GI50 (A549 NSCLC) was 0.239 µM, the TGI (A549 NSCLC) was 55.8 µM and > 100 µM and the GI50 (ACHN renal) was 1.24 µM. For the same molecule, the TGI (ACHN renal) was 87.5 µM and > 100 µM, the GI50 (HT29 colon) was 0.0552 µM and the GI50 (MCF7 breast) was 0.0618 µM. For the same molecule, the TGI (MCF7 breast) was 46.2 µM and > 100 µM, the GI50 (OVCAR-8 ovarian) was 0.487 µM and the TGI (OVCAR-8 ovarian) was 15.7 µM and > 100 µM. For the same molecule, the GI50 (PC-3 prostate) was 0.246 µM, the TGI (PC-3 prostate) was 14.2 µM and > 100 µM and the TGI (RXF 393 renal) was 1.36 µM. The GI50 (SK-MEL-28 melanoma) was 0.376 µM, the TGI (SK-MEL-28 melanoma) was 61.8 µM and > 100 µM and the GI50 (SK-OV-3 ovarian) was 0.347 µM. The GI50 (SR leukemia) was 0.019 µM and 0.0327 µM and the TGI (SR leukemia) was 5.98 µM.

In the case of `C[C@@H]1Cc2c(ccc3[nH]ncc23)[C@@H](c2ccc(NC3CN(CCCF)C3)cn2)N1CC(F)(F)F`, the GI50 (A549 NSCLC) is reported as 30.8 µM, the TGI (A549 NSCLC) is reported as over 100 µM and the GI50 (ACHN renal) is reported as 22.2 µM. It also gave a TGI (ACHN renal) of 53 µM, a GI50 (HT29 colon) of 13.7 µM and a TGI (HT29 colon) of 43.2 µM. For the same molecule, the GI50 (MCF7 breast) was under 0.01 µM, the TGI (MCF7 breast) was 16.1 µM and the GI50 (OVCAR-8 ovarian) was 23.5 µM. For the same molecule, the TGI (OVCAR-8 ovarian) was 69.8 µM, the GI50 (PC-3 prostate) was 15.6 µM and the TGI (PC-3 prostate) was 47.8 µM. For the same molecule, the GI50 (RXF 393 renal) was 6.8 µM, the TGI (RXF 393 renal) was 22.9 µM and the GI50 (SK-MEL-28 melanoma) was 16.5 µM. For the same molecule, the TGI (SK-MEL-28 melanoma) was 32.1 µM, the GI50 (SK-OV-3 ovarian) was 14.3 µM and the TGI (SK-OV-3 ovarian) was 37.1 µM. It also gave a GI50 (SR leukemia) of 16.8 µM and a TGI (SR leukemia) of 53.1 µM.

In the case of `CCN(CC)CCNc1ccc([N+](=O)[O-])c2nc3ccc(OC)cc3c(N)c12`, the TGI (A549 NSCLC) is reported as 2.79 µM, the TGI (ACHN renal) is reported as 2.89 µM and the TGI (HT29 colon) is reported as 1.42 µM. The TGI (MCF7 breast) was 1.31 µM, the TGI (OVCAR-8 ovarian) was 3.45 µM and the TGI (PC-3 prostate) was 2.78 µM. The TGI (RXF 393 renal) was 2.58 µM, the TGI (SK-MEL-28 melanoma) was 3.37 µM and the TGI (SK-OV-3 ovarian) was 3.58 µM. The TGI (SR leukemia) was 0.972 µM.

In the case of `CCOC(=O)N(O)c1ccc(/C=C/c2ccccc2)cc1`, the GI50 (A549 NSCLC) is reported as 2.98 µM, the TGI (A549 NSCLC) is reported as 41.9 µM and the GI50 (ACHN renal) is reported as 8.38 µM. It also gave a TGI (ACHN renal) of over 93.7 µM, a GI50 (HT29 colon) of 8.3 µM and a TGI (HT29 colon) of 31.5 µM. For the same molecule, the GI50 (MCF7 breast) was 0.341 µM, the TGI (MCF7 breast) was 14.6 µM and the GI50 (OVCAR-8 ovarian) was 10.9 µM. For the same molecule, the TGI (OVCAR-8 ovarian) was over 100 µM, the GI50 (PC-3 prostate) was 8.23 µM and the TGI (PC-3 prostate) was over 100 µM. The GI50 (RXF 393 renal) was 13.2 µM, the TGI (RXF 393 renal) was over 90.4 µM and the GI50 (SK-MEL-28 melanoma) was 17.6 µM. For the same molecule, the TGI (SK-MEL-28 melanoma) was 59.8 µM, the GI50 (SK-OV-3 ovarian) was 23.6 µM and the TGI (SK-OV-3 ovarian) was over 100 µM. The GI50 (SR leukemia) was 4.1 µM and the TGI (SR leukemia) was 28.2 µM.
